Test results published in the CheMixHub viscosity set.

Experiment: xn = mol fraction of the nth substance listed

CC(=O)CC(C)C + CCCCCCCCCCO
viscosity [mPa·s], 100 kPa
Conditions	x1 = 0.0846	x1 = 0.1569	x1 = 0.2402	x1 = 0.3455	x1 = 0.4437	x1 = 0.5617	x1 = 0.6591	x1 = 0.7447	x1 = 0.8561	x1 = 0.9486
293.15 K	12.8	11.5	10.21	8.72	7.39	5.89	4.69	3.64	2.29	1.18
303.15 K	8.66	7.8	6.94	5.94	5.05	4.05	3.24	2.55	1.65	0.92
313.15 K	6.09	5.5	4.91	4.21	3.59	2.9	2.34	1.85	1.23	0.74
323.15 K	4.44	4.02	3.58	3.08	2.64	2.15	1.75	1.4	0.96	0.61

O=C1CCCCC1 + CCOC(=O)OCC
viscosity [mPa·s], 101 kPa
Conditions	x2 = 0.0898	x2 = 0.1505	x2 = 0.2556	x2 = 0.3587	x2 = 0.4619	x2 = 0.5665	x2 = 0.6701	x2 = 0.7601	x2 = 0.8945	x2 = 0.9487
303.15 K	1.626	1.498	1.321	1.156	1.028	0.911	0.825	0.768	0.719	0.708
308.15 K	1.479	1.37	1.202	1.056	0.937	0.837	0.759	0.711	0.669	0.658
313.15 K	1.375	1.274	1.116	0.981	0.873	0.784	0.714	0.668	0.626	0.617

CCCCCC(=O)O + CC(C)[C@@H]1CC[C@@H](C)C[C@H]1O
Conditions	viscosity [mPa·s]
298 K, 101 kPa, x2 = 0.333	8.9

C=C(C)[C@@H]1CC=C(C)CC1 + CCCCCC
298.15 K, 101.33 kPa
Conditions	viscosity [mPa·s]
x2 = 0.0279	0.825
x2 = 0.0568	0.806
x2 = 0.113	0.759
x2 = 0.2079	0.686
x2 = 0.2991	0.622
x2 = 0.4219	0.549
x2 = 0.5543	0.477
x2 = 0.6701	0.421
x2 = 0.7542	0.386
x2 = 0.8966	0.334
x2 = 0.9273	0.326
x2 = 0.972	0.305

OCCOCCOCCOCCOCCOCCOCCO + O
viscosity [mPa·s], 100 kPa
Conditions	293.15 K	298.15 K	303.15 K	308.15 K	313.15 K	318.15 K	323.15 K
x2 = 0.059	97.27	73.66	57.03	45.14	36.26	29.64	24.53
x2 = 0.088	93.78	71.34	53.69	42.57	34.29	28	23.21
x2 = 0.188	92.26	69.66	53.76	42.35	33.98	27.72	22.88
x2 = 0.221	92.02	69.89	53.68	42.29	33.97	27.67	22.86

CC(=O)CC(C)C + CCCCN(CCCC)CCCC
viscosity [mPa·s], 101 kPa
Conditions	298.15 K	303.15 K	308.15 K
x2 = 0.0501	0.564	0.53	0.499
x2 = 0.1	0.593	0.556	0.524
x2 = 0.1499	0.622	0.582	0.549
x2 = 0.2004	0.653	0.609	0.576
x2 = 0.25	0.685	0.638	0.601
x2 = 0.3017	0.719	0.668	0.628
x2 = 0.4004	0.786	0.727	0.681
x2 = 0.4999	0.856	0.788	0.737
x2 = 0.6004	0.928	0.855	0.796
x2 = 0.6962	1.002	0.922	0.855
x2 = 0.8004	1.087	0.998	0.922
x2 = 0.8496	1.129	1.033	0.954
x2 = 0.8997	1.171	1.07	0.988
x2 = 0.9499	1.22	1.114	1.023

CCOCC + O=S(=O)(O)O
303.15 K, 101 kPa
Conditions	viscosity [mPa·s]
x1 = 0.00853	206.9
x1 = 0.01735	203
x2 = 0.05093	2.73
x2 = 0.07611	3.096
x2 = 0.1322	4.36
x2 = 0.1739	5.79
x2 = 0.2412	9.824
x2 = 0.3269	21.94
x2 = 0.3684	34.8
x2 = 0.3933	47.52
x2 = 0.4239	67.01
x2 = 0.4513	87.88
x2 = 0.5139	134.5
x2 = 0.5527	153.7
x2 = 0.5826	161.5
x2 = 0.636	160.6
x2 = 0.6604	156.7
x2 = 0.729	133.8
x2 = 0.8088	127.2
x2 = 0.8194	127.2
x2 = 0.891	138.2
x2 = 0.9089	145.2
x2 = 0.9478	169.2
x2 = 0.9658	187.2
x2 = 0.9684	189.7
x2 = 0.9737	196.3

CCC(C)N (stereo not drawn) + CCOCCO
308.15 K, 101 kPa
Conditions	viscosity [mPa·s]
x2 = 0.1045	0.5211
x2 = 0.208	0.6419
x2 = 0.3105	0.7668
x2 = 0.412	0.8957
x2 = 0.5124	1.016
x2 = 0.6188	1.13
x2 = 0.7103	1.217
x2 = 0.8078	1.304
x2 = 0.9043	1.385
